What was measured:
[1] = tested on: diabetic foot ulcer rat model (STZ-induced diabetic rat); assay: Foot ulcer wound area of diabetic foot ulcer model rat; assay type: in vivo, Sprague Dawley rats; settings: for Area of foot ulcer wound: DFU rats, S26 46.8 mg/kg/day intragastric, Mean ± SD, n = 6
Procedure: Diabetic foot ulcer (DFU) was the most common manifestation of diabetic foot, and was also a main cause of amputation of a diabetic patient. In this experiment, a certain area of wound was created on a foot back of the diabetic rat at one time to form a diabetic foot ulcer model, and then the compound S26 was administrated for treatment. The influence of the vinpocetine derivative S26 on the healing of the diabetic foot ulcer was evaluated by taking a photo of the wound and quantifying an area of the wound. […] Four weeks after STZ injection, an inhalation anesthesia machine was used to carry out isoflurane inhalation to induce anesthesia, and a complete round skin wound was created on a rear foot back of the diabetic rat through a disposable 5 mm skin biopsy punch and a Westcott scissor. After the establishment of the diabetic foot ulcer rat model, the rats were divided into a control group (non-diabetic rats), a model group (DFU rats) and a S26 administration group (46.8 mg/kg/day) respectively according to blood sugar and body weight, and administrated intragastrically for four weeks continuously. The foot ulcer wound of each rat was observed on day 0, day 3, day 7, day 14, day 21 and day 28 after administration, and photographed with a camera, and then the wound area was quantified by Image J software through scale conversion.

[2] = tested on: type-2 diabetes model db/db mice; assay: Motor nerve conduction velocity, type-2 diabetes db/db mice; assay type: in vivo, BKS db/db mice; settings: for Motor nerve conduction velocity: db/db mice, S26 46.8 mg/kg/day intragastric, Mean ± SD, n = 3
Procedure: Type-2 diabetes mice: male 18-week-old BKS db/db mice were purchased from Jiangsu Gempharmatech Biotechnology Co., Ltd. One week after adaptive feeding, the mice were divided into a control group (db/m mice), a model group (db/db mice) and a S26 administration group (46.8 mg/kg/day) respectively according to body weight and blood sugar, and administrated intragastrically for four weeks continuously. Before administration, 2 weeks and 4 weeks after administration, motor nerve conduction velocities (MNCV) of left and right sides of each group of mice were detected, and a mean value of the velocities of two sides was taken as a nerve conduction velocity of each mouse. Specific experimental method: (1) electrode placement: a stimulating electrode was placed on a nerve trunk, a recording electrode was placed on a muscle belly, and a reference electrode was placed on a muscle tendon; and a ground electrode was placed between the stimulating electrode and the recording electrode. (2) Calculation of motor nerve conduction velocity: distal and proximal ends of the nerve trunk were stimulated in a super-strong manner, a compound muscle action potential could be recorded twice on a muscle innervated by the nerve, different latent periods of the compound muscle action potentials were measured, and a distance between the distal and proximal ends was divided by a difference between the two latent periods, so as to obtain the nerve conduction velocity. Computational formula: nerve conduction velocity (m/s)=distance between two ends (cm)×10/difference between two latent periods (ms).

[3] = tested on: type-2 diabetes model db/db mice; assay: Latent period of thermal pain, type-2 diabetes db/db mice; assay type: in vivo, BKS db/db mice; settings: S26 46.8 mg/kg/day intragastric, Mean ± SD, n = 6
Procedure: (§1) Type-2 diabetes mice: male 18-week-old BKS db/db mice were purchased from Jiangsu Gempharmatech Biotechnology Co., Ltd. One week after adaptive feeding, the mice were divided into a control group (db/m mice), a model group (db/db mice) and a S26 administration group (46.8 mg/kg/day) respectively according to body weight and blood sugar, and administrated intragastrically for four weeks continuously. A response of an animal to infrared thermal stimulation was detected weekly by an infrared plantar pain threshold detector (37370, purchased from Ugo Basile Company) before and after administration to characterize a thermal pain sensitivity of the animal. A mouse was put into a single cage equipped for the machine in advance to adapt for 20 minutes, and then plantar thermal stimulation was carried out on the mouse. […] The thermal pain sensitivity was evaluated by comparing the thermal stimulation time.

[4] = tested on: STZ-induced type-1 diabetes model mice; assay: Latent period of thermal pain, type-1 diabetic peripheral neuropathy mice; assay type: in vivo, C57BL/6J mice; settings: type-1 mice, S26 46.8 mg/kg/day intragastric, Mean ± SD, n = 6
Procedure: as §1, with “Type-1” for “Type-2”, “8-week-old C57BL/6J” for “18-week-old BKS db/db”, “Beijing Vital River Laboratory Animal Technology” for “Jiangsu Gempharmatech Biotechnology”, “feeding, STZ (150 mg/kg) was injected intraperitoneally, and one week later, tail vein blood collection was carried out for blood sugar detection, and the mice with random blood sugar greater than 16 mmol/L were selected. Six weeks after STZ injection,” for “feeding,”, “(non-diabetic” for “(db/m”, “(DPN” for “(db/db”

CC[C@@]12C=C(C(=O)NCC(=O)OCCOCCOCCOCCO)n3c4c(c5ccccc53)CCN(CCC1)[C@H]42 [Compound S26]
Area of foot ulcer wound ([1]; day 0 of administration): 25.02 ± 2.85 mm^2 | Area of foot ulcer wound ([1]; day 3 of administration): 22.57 ± 2.76 mm^2 | Area of foot ulcer wound ([1]; day 7 of administration): 11.83 ± 3.73^# mm^2 | Area of foot ulcer wound ([1]; day 14 of administration): 10.50 ± 2.01^## mm^2 | Area of foot ulcer wound ([1]; day 21 of administration): 8.78 ± 1.35^## mm^2 | Area of foot ulcer wound ([1]; day 28 of administration): 6.02 ± 1.67^# mm^2 | Area of the foot ulcer wound (in words, FIG. 2) ([1]; diabetic foot rat): obviously reduce | Motor nerve conduction velocity ([2]; week 0 of administration): 20.45 ± 3.94^ m/s | Motor nerve conduction velocity ([2]; week 2 of administration): 29.70 ± 4.27 m/s | Motor nerve conduction velocity ([2]; week 4 of administration): 36.57 ± 3.34 m/s | Motor nerve conduction velocity and anesthesia symptom (in words) ([2]; type-2 diabetes mouse, Tables 5 to 7): obviously improve | Latent period of thermal pain ([3]; week 0 of administration): 15.55 ± 2.29 ^ s | Latent period of thermal pain ([3]; week 1 of administration): 13.50 ± 2.05 ^ s | Latent period of thermal pain ([3]; week 2 of administration): 12.00 ± 2.28 s | Latent period of thermal pain ([3]; week 3 of administration): 8.62 ± 1.51 s | Latent period of thermal pain ([3]; week 4 of administration): 7.65 ± 1.30 s | Latent period of thermal pain ([4]; week 0 of administration): 11.33 ± 0.67 ^ s | Latent period of thermal pain ([4]; week 1 of administration): 8.19 ± 0.69 s | Latent period of thermal pain ([4]; week 2 of administration): 6.97 ± 0.73 s | Latent period of thermal pain ([4]; week 3 of administration): 6.16 ± 1.33 s | Latent period of thermal pain ([4]; week 4 of administration): 6.38 ± 0.54 s

From patent US12600724B2, “Indole alkaloid and preparation method and use thereof” (NANJING UNIVERSITY OF CHINESE MEDICINE, priority 2022, dated 2026)
